{"source": "patent US5801144A", "about": "“Use of a compound for the manufacture of a medicament for the treatment of HIV infection” (priority 1992, dated 1998)", "key": {"CD4 [1]": {"tested_on": "CD4", "assay": "CD4 expression on HIV-1 chronically infected cells (flow cytometry)", "assay_type": "cell-based", "conditions": "1 and 4 μg/ml, 3 days", "method": "(§1) Each cell preparation was kept separately at a concentration of 1 and 4 μg/ml of each drug for 3 days. Infected and uninfected cells were suspended at a concentration of 10^6 /ml in phosphate buffered saline (PBS) containing 0.1% sodium azide. Triplicate aliquots of 100 μl were incubated separately with 20 μl Leu-3a (FITC) (Ortho (Becton Dickinson UK Ltd) or with 10 μl OKT4a (FITC) Diagnostic Systems). After 20 min at 22° C. the cells were washed twice with PBS and resuspended in 0.51% paraformaldehyde/PBS (Sigma). The preparations were fixed overnight at 4° C. and subsequently analysed by flow cytometry (FACScan, Becton Dickinson UK Ltd). The median channel fluorescence was recorded for each sample."}, "NDK strain of HIV-1": {"tested_on": "NDK strain of HIV-1", "assay": "Giant cell assay: co-cultivation of HIV-1 chronically infected Molt 4 cells with non-infected Molt 4 cells", "assay_type": "cell-based", "method": "Method: A clone of the leukaemia T-cell line Molt 4, which expresses a very high level of CD4, was selected. This was infected with the highly cytopathic NDK strain of HIV-1^6 and a clone which is chronically infected with the virus but which readily replicates was selected. When these HIV-infected cells w ere co-cultivated with non-infected Molt 4 cells at a ratio of 100 non-infected:1 infected cell, very large giant cells were formed within 24 hours.\n(§2) The effects of serum from healthy HIV-1 infected individuals and AIDS patients on giant cell formation was also examined. In addition the level of cytotoxicity and anti-HIV-1 activity of these substances was tested in an anti-HIV assay system which has been previously described^7. This enabled us to establish the anti-viral activity and cytotoxicity in parallel and to compare it to the effects of AZT on virus inhibition and cell division."}, "HIV-2": {"tested_on": "HIV-2", "assay": "Giant cell / cytopathic effect on co-cultivation of HIV-2 chronically infected cells with uninfected cells", "assay_type": "cell-based", "conditions": "co-cultivation in the presence of the drugs, within 24 hours"}, "[2]": {"tested_on": "Molt 4 cells chronically infected with HIV-1", "assay": "Growth-rate of chronically infected T-cells", "assay_type": "cell-based", "method": "(§3) Method: Molt 4 cells and the clone of the same cells, chronically infected with HIV-1, were seeded separately at an approximate concentration of 5×10^4 cells/ml. Five separate cultures of each of the two cell populations were seeded. […] At 24 hour intervals samples were taken for cell counting. Feeding with or without the corresponding chemical was done after the fourth day. AZT was also used in parallel."}, "HIV-1 [3]": {"tested_on": "HIV-1", "assay": "Anti-HIV assay system (HIV-1 replication, cytotoxicity in parallel)", "assay_type": "cell-based", "method": "as §2"}, "HIV-1 [4]": {"tested_on": "HIV-1", "conditions": "drug-containing medium replaced with growth medium alone, one week", "method": "Method: Culture fluid was collected from:\n1. chronically infected cells grown in growth medium;\n3. chronically infected cells grown in 10 μg/ml of FK506 and for 1 week after removal of compound;\nEach culture was titrated at serial ten-fold dilutions. Each dilution was used to infect Molt 4 cells in duplicate. The end point was recorded after 10 days."}, "[5]": {"tested_on": "non-infected Molt 4 cells", "assay": "Growth-rate of non-infected T-cells", "assay_type": "cell-based", "method": "as §3"}, "CD4 [6]": {"tested_on": "CD4", "assay": "CD4 expression on non-infected cells (flow cytometry)", "assay_type": "cell-based", "conditions": "1 and 4 μg/ml, 3 days", "method": "as §1"}}, "note": "Entries after “also recorded” stand apart in the source; their conditions may differ. Where two headings read alike, the source gives them in different places.", "data": [{"smiles": "C=CC[C@@H]1/C=C(\\C)C[C@H](C)C[C@H](OC)[C@H]2O[C@@](O)(C(=O)C(=O)N3CCCC[C@H]3C(=O)O[C@H](/C(C)=C/[C@@H]3CC[C@@H](O)[C@H](OC)C3)[C@H](C)[C@@H](O)CC1=O)[C@H](C)C[C@@H]2OC", "note": "[FK506, 16-Allyl-1, 14-dihydroxy-12-[2-(4-hydroxy-3-methoxycyclohexyl)-1-methylvinyl]-23,25-dimethoxy-13,19,21,27-tetramethyl-11,28-dioxa-4-azatricyclo-[22,3,1,0^4,9]octacos-18-ene-2,3,10,16-tetrone]", "values": [{"measurement": "CD4 expression on chronically HIV-1 infected Molt 4 cells", "setting": "CD4 [1]", "value": "does not seem to be affected"}, {"measurement": "delay of cytopathic effect / giant cell formation (anti-HIV-1 activity)", "setting": "NDK strain of HIV-1; HIV-1, co-cultivation in the presence of the drugs, within 24 hours", "value": "delay of the cytopathic effect; also recorded: delay in the formation of giant cells"}, {"measurement": "giant cell formation after drug pre-treatment of infected cells", "setting": "NDK strain of HIV-1; chronically infected cells cultured one week with drug, washed, co-cultivated without drug", "value": "a few small giant cells could be seen during the first 24 hours"}, {"measurement": "onset of cytopathic effects, in particular giant cell formation", "setting": "NDK strain of HIV-1; chronically infected cells grown with drug for five days and then washed", "value": "inhibition of and a delay in the onset of cytopathic effects"}, {"measurement": "giant cell formation", "setting": "NDK strain of HIV-1; co-cultured in the presence of 10 μg/ml, examined after 24 hours", "value": "only a few small giant cells"}, {"measurement": "delay of cytopathic effect / giant cell formation (anti-HIV-2 activity)", "setting": "HIV-2", "value": "delay of the cytopathic effect; also recorded: delay in the formation of giant cells"}, {"measurement": "effect on growth / replication of HIV-1 chronically infected cells", "setting": "[2]", "value": "inhibited the replication; also recorded: inhibit the growth of the chronically infected cells"}, {"measurement": "cell division of chronically infected cells at 4 μg/ml", "setting": "[2]; 4 μg/ml", "value": "significant reduction in cell division"}, {"measurement": "number of chronically infected cells at 10 μg/ml", "setting": "[2]; 10 μg/ml, after a week in culture", "value": "only a marginal increase in the number of cells"}, {"measurement": "effect on growth / replication of HIV-1 chronically infected cells", "setting": "[2]; listed as FK", "value": "significantly inhibited the replication"}, {"measurement": "HIV-1 replication at 1 μg", "setting": "HIV-1 [3]; at 1 μg", "value": "only a partial decrease"}, {"measurement": "antiviral activity at non-toxic concentrations", "setting": "HIV-1 [3]; non-toxic concentrations", "value": "marginal antiviral activity"}, {"measurement": "inhibition of HIV-1 replication (comparison with AZT)", "setting": "HIV-1 [3]; various concentrations, FIG. 1", "value": "far lower than that of AZT"}, {"measurement": "production of infectious HIV-1 after drug removal", "setting": "HIV-1 [4]", "value": "increase in the production of infectious HIV-1 to the levels which preceded the drug treatment"}, {"measurement": "cell division of uninfected cells at 4 μg/ml", "setting": "[5]", "value": "did not appear to slow cell division"}, {"measurement": "growth of uninfected cells, first five days", "setting": "[5]", "value": "did not affect the growth of uninfected cells"}, {"measurement": "number of uninfected cells after day five at 10 μg/ml", "setting": "[5]", "value": "only a marginal increase in the number of cells"}, {"measurement": "CD4 expression on uninfected Molt 4 cells", "setting": "CD4 [6]", "value": "expressed a high level of CD4"}]}]}
